{
  "source": "BindingDB's records for doi:10.1021/jm8008629",
  "about": "(Wayne State University, 2008)",
  "key": {"[1]": {"target": "D(2) dopamine receptor (Rattus norvegicus, UniProt P61169)", "sequence (P61169 whole entry)": "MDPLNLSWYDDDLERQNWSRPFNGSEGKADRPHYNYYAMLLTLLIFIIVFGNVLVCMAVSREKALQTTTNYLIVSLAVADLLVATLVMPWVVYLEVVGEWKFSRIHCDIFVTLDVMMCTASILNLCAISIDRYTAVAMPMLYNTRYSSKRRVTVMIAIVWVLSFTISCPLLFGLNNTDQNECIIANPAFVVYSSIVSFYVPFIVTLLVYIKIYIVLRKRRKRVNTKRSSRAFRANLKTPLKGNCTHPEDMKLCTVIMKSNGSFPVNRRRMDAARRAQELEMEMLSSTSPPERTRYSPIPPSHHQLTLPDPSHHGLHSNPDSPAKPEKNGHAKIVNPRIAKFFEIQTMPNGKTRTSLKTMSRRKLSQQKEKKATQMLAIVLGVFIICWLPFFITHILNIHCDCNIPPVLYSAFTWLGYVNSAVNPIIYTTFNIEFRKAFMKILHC", "experiment": "Displacement of [3H]Spiperone from rat dopamine D2L receptor expressed in HEK293 cells"}, "[2]": {"target": "D(3) dopamine receptor (Rattus norvegicus, UniProt P19020)", "sequence (P19020 whole entry)": "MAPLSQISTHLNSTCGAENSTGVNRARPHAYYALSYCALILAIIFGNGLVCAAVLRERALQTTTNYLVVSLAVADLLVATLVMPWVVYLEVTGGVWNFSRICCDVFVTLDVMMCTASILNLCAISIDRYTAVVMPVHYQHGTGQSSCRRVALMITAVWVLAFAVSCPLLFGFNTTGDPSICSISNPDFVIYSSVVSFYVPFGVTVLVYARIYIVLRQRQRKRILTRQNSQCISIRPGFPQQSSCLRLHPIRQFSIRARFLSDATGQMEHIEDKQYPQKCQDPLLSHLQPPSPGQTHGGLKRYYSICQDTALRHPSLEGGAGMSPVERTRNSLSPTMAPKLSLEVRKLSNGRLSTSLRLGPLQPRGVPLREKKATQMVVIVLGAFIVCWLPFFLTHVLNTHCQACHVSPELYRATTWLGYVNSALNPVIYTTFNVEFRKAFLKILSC", "experiment": "Displacement of [3H]Spiperone from rat dopamine D3 receptor expressed in HEK293 cells"}},
  "data": [
    {"smiles": "Oc1ccc2c(c1)C[C@@H]1[C@@H](CCCN1CCN1CCN(c3ccccc3)CC1)C2", "note": "(racemic) [(+/-)-cis-1-[2-(4-Phenylpiperazin-1-yl)ethyl]-1,2,3,4,4a,5,10,10a-octahydrobenzo[g]quinolin-8-ol]", "values": [
      {"measurement": "Ki", "setting": "[1]", "value": 3330, "unit": "nM"},
      {"measurement": "Ki", "setting": "[2]", "value": 419, "unit": "nM"}
    ]}
  ]
}
